Experimental data reported in paper PMC10200060, “Inhibition of DAMP actions in the tumoral microenvironment using lactoferrin-glycyrrhizin conjugate for glioblastoma therapy” (Biomaterials Research, 2023).

Assays:
[1] = test system: ERK phosphorylation; assay: Western blot of phospho-ERK/ERK in HUVEC; assay type: cell-based, human; conditions: 24 h of treatment with HMGB1
Experimental: Total cellular protein concentration was determined using a BCA Protein Assay Kit (Pierce, Rockford, IL, USA). Equal amounts of protein from cell lysates were loaded onto a 12% sodium dodecyl sulfate–polyacrylamide gel. After electrophoresis, proteins were transferred to polyvinylidene fluoride membranes blocked with 5% bovine serum albumin for 1 h at room temperature and were diluted 1:500 with the indicated primary antibodies (rabbit anti-ERK1/2, anti-phospho-ERK1 and β-actin antibodies [Cell Signaling Technology, INC.]). Then, the membrane was washed 3 times for 15 min with tris-buffered saline containing Tween 20 and was incubated with HRP-conjugated secondary antibody for 1 h at room temperature. After washing three times for another 15 min with Tris-buffered saline with Tween 20, immune complexes were detected with an enriched chemiluminescent reagent (EZ-Western Lumi Femto, DoGen, South Korea) and staining was quantified by densitometry analysis using an Alpha Imager 2200.

[2] = test system: HUVEC; assay: Capillary tube formation assay; assay type: cell-based, human; conditions: HMGB1 (+) control vs HMGB1 (-) control, 24 h
Experimental: A 24-well plate was coated with of Matrigel® (200 μL, Corning, NY, USA) and was incubated for 30 min in 37℃ incubators. HUVECs were seeded upon a coated Matrigel® 24-well plate (seeding density: 5.0 × 10^4 cells per well). Subsequently, cells were treated with GL (50 × 10^–6 M), Lf (5 × 10^–6 M) or Lf-GL (1 × 10^–6 M) and incubated for 24 h. Then, Calcein AM was added to each well, and the formation of tubes was observed using fluorescence microscopy. These tubes were quantified using Image J.

[3] = test system: U87MG; assay: HMGB1-mediated GBM cell proliferation (CCK-8); assay type: cell-based, human
Experimental: (§1) Cell viability was determined using a cell counting kit-8 (CCK-8). U87MG and HUVECs (seeding density: 0.75 × 10^4 cells per well) in 96-well culture plates were treated with GL, Lf, or Lf-GL (25 to 200 × 10^–6 M of GL equivalent concentration) and were incubated for different periods of time (24, 48, and 72 h). After washing with PBS, they were treated with a cell culture medium containing a CCK-8 assay kit (Abbkine) and were incubated at 37 °C and 5% CO2 for 2 h. Then, absorbance was measured at 450 nm in a micro-plate reader (VLBL00D0, Thermo Fisher Scientific). Results were quantified using Sigma Plot (Systat Software, USA). To determine the effect of extracellular HMGB1 in GBM and endothelial cell proliferation, U87MG and HUVECs were seeded in 96-well culture plates (seeding density: 0.75 × 10^4 cells per well) and GL, Lf, or Lf-GL (50 × 10^–6 M GL equivalent concentration) were added to cells with or without HMGB1 protein (U87MG: 0.1 μg mL^−1, and HUVEC: 1 μg mL^−1). Cells were incubated for different periods of time (24, 48, and 72 h).

[4] = test system: U87MG; assay: Wound-healing scratch (cell migration) assay; assay type: cell-based, human; conditions: HMGB1 0.1 μg mL^−1, 24 h
Experimental: A wound-healing scratch assay was performed in U87MG to evaluate the effect of GL, Lf and Lf-GL treatment on the cancer cell migration. Cells were seeded in 100 mm-cell culture dishes, 2.0 × 10^6 cells per dish. After the cells were grown to 80% confluence, a scratch was made through the cell monolayer with a 200 μL pipet tip, and it was washed with PBS. Photographs (4 ×) were taken in each of three different scratch areas, and their location on the dish was marked. GL (50 × 10^–6 M), Lf (5 × 10^–6 M) or Lf-GL (1 × 10^–6 M) dissolved in serum-free medium were added to cells with or without HMGB1 protein (0.1 μg mL^−1). Then, cells were incubated for 24 h, and the same areas were re-photographed. Migration distances were examined using the scale bar.

[5] = test system: HUVEC; assay: HMGB1-mediated HUVEC proliferation (CCK-8); assay type: cell-based, human
Experimental: as §1

[6] = test system: rat aortic rings; assay: Aorta ring assay (ex vivo); conditions: VEGF 25 ng mL^−1 positive control, 14 days
Experimental: An aorta ring assay was conducted to confirm the anti-angiogenesis effect of Lf-GL ex vivo. A 48-well plate was coated with of Matrigel® (100 μL) and was incubated for 30 min or more in 37℃ incubators. In the meantime, thoracic aortas of 7-week-old male SD rats were excised. Then, the fat layer and outer membrane were removed, and rings approximately 1 mm in length were prepared. The prepared aortic rings were seeded on a coated Matrigel® of 48-well plate and were covered with Matrigel®. (100 μL) Subsequently, the aortic ring was treated with a control (with or without 25 ng mL^−1 of VEGF) or different concentrations of Lf-GL complex. Medium was changed once every two days. Fourteen days after treatment, optical images of sprouting microvessels were obtained using microscopy magnification (× 40 or × 100). Sprouting microvessel area was quantified using Image J and Sigma Plot.
Fig. S14. Significant inhibitory effect of Lf-GL in aortic ring angiogenesis. Optical images of vessel regression in aortic ring with Lf-GL treatment. Aortic ring assay was carried out in 48-well plate coated with Matrigel. VEGF-non treated control represents that aortic ring incubated with normal medium. VEGF-treated control represents that aortic ring incubated with 25 ng mL^-1 VEGF-conditioned medium. […]

Row | Substance | Increase of p-ERK level compared to non-treatment [1] | Increase of newly generated micro-vessels (tube number) [2] | Tumor growth compared to controls not treated with HMGB1 ([3]; HMGB1 0.1 μg mL^−1, day 1) | Tumor growth compared to controls not treated with HMGB1 ([3]; HMGB1 0.1 μg mL^−1, day 2) | Tumor growth compared to controls not treated with HMGB1 ([3]; HMGB1 0.1 μg mL^−1, day 3) | Migration distance more than HMGB1-nontreated cell [4] | Angiogenic potential (viability) of HUVEC vs control ([5]; HMGB1 1 μg mL^−1, day 1) | Angiogenic potential (viability) of HUVEC vs control ([5]; HMGB1 1 μg mL^−1, day 2) | Angiogenic potential (viability) of HUVEC vs control ([5]; HMGB1 1 μg mL^−1, day 3) | Increase of outgrowth of endothelial tubules [6]
1 | HMGB1: High-mobility group box-1 protein added to cells as stimulus | 2.3 times | 21.0 ± 2.1% | 110.7 ± 8.2% | 133.4 ± 1.3% | 140.7 ± 5.2% | 121.3 ± 42.8 μm | 108.2 ± 7.9% | 137.9 ± 12.3% | 169.8 ± 18.1% | 
2 | VEGF [reference compound] |  |  |  |  |  |  |  |  |  | 51.1 ± 105.2%
